pIC50: −log10 of the molar value.
tested on: purified human Hsp90; assay: Binding Assay: fluorescence polarization with BODIPY-labeled geldanamycin; settings: 5 μM compound, BODIPY-GM 10 nM, Hsp90 30 nM
Method: Compound binding to purified Hsp90 was monitored using BODIPY-labeled geldanamycin (BODIPY-GM) in a fluorescence polarization assay adapted from Kim et al. (Journal of Biomolecular Screening 2004, 9(5):375-381). Compound dilutions (in 100% DMSO) were added to black-bottom 96-well plates (Greiner; 2% DMSO final), and equal volumes of BODIPY-GM (10 nM final) and purified human Hsp90 (Stressgen, SPP-770; 30 nM final) in assay buffer (20 mM HEPES-KOH pH 7.3, 50 mM KCl, 5 mM MgCl2, 20 mM Na2MoO4, 0.01% NP-40, 0.1 mg/mL bovine gamma globulin [Invitrogen, P2045], 2 mM DTT) were added sequentially to yield a final volume of 50 microliters. Plates were incubated overnight at room temperature. Parallel and perpendicular fluorescence measurements were read (LJL BioSystems Analyst AD plate reader) with excitation/emission wavelengths of 485/530 nm. Background fluorescence (buffer only) was subtracted, and fluorescence polarization (FP) values, expressed in mP units, were calculated from parallel and perpendicular fluorescence readings as follows: FP=(parallel−perpendicular)/(parallel+perpendicular)*1000
Percent inhibition was calculated by normalizing the FP values to those obtained in parallel reactions containing DMSO and subtracting these normalized values from 100%. Intrinsic compound fluorescence was independently monitored, and FP data points confounded by compound fluorescence were excluded from the analysis.

| Structure (SMILES) | % Inhibition at 5 μM Compound Concentration [%] |
| --- | --- |
| COc1ccc(OC)c(Sc2nc3c(N)ncnc3n2CCn2cccc2)c1 [Example 65, 8-(2,5-Dimethoxy-phenylsulfanyl)-9-(2-pyrrol-1-yl-ethyl)-9H-purin-6-ylamine] | 61 |
| COc1ccc(OC)c(Sc2nc3c(N)ncn(CCn4cccc4)c-3n2)c1 [Example 66, 8-(2,5-dimethoxy-phenylsulfanyl)-3-(2-pyrrol-1-yl-ethyl)-3H-purin-6-ylamine] | 5 |
| COc1ccc(OC)c(Sc2nc3c(N)ncnc3n2CCc2cccc3ccccc23)c1 [Example 67, 8-(2,5-Dimethoxy-phenylsulfanyl)-9-(2-naphthalen-1-yl-ethyl)-9H-purin-6-ylamine] | 56 |
| COc1ccc(OC)c(Sc2nc3c(N)ncn(CCc4cccc5ccccc45)c-3n2)c1 [Example 68, 8-(2,5-dimethoxy-phenylsulfanyl)-3-(2-naphthalen-1-yl-ethyl)-3H-purin-6-ylamine] | 0 |
| COc1ccc(OC)c(Sc2nc3c(N)ncnc3n2CCc2ccccc2C)c1 [Example 69, 8-(2,5-Dimethoxy-phenylsulfanyl)-9-(2-o-tolyl-ethyl)-9H-purin-6-ylamine] | 69 |
| COc1ccc(OC)c(Sc2nc3c(N)ncn(CCc4ccccc4C)c-3n2)c1 [Example 70, 8-(2,5-dimethoxy-phenylsulfanyl)-3-(2-o-tolyl-ethyl)-3H-purin-6-ylamine] | 7 |
| COc1ccc(OC)c(Sc2nc3c(N)ncnc3n2CCc2ccc(Br)cc2)c1 [Example 71, 9-[2-(4-Bromo-phenyl)-ethyl]-8-(2,5-dimethoxy-phenylsulfanyl)-9H-purin-6-ylamine] | 41 |
| COc1ccc(OC)c(Sc2nc3c(N)ncn(CCc4ccc(Br)cc4)c-3n2)c1 [Example 72, 3-[2-(4-bromo-phenyl)-ethyl]-8-(2,5-dimethoxy-phenylsulfanyl)-3H-purin-6-ylamine] | 0 |
| COc1ccc(OC)c(Sc2nc3c(N)ncnc3n2CCc2cccc(Cl)c2Cl)c1 [Example 73, 9-[2-(2,3-Dichloro-phenyl)-ethyl]-8-(2,5-dimethoxy-phenylsulfanyl)-9H-purin-6-ylamine] | 2 |
| COc1ccc(OC)c(Sc2nc3c(N)ncn(CCc4cccc(Cl)c4Cl)c-3n2)c1 [Example 74, 3-[2-(2,3-dichloro-phenyl)-ethyl]-8-(2,5-dimethoxy-phenylsulfanyl)-3H-purin-6-ylamine] | 0 |
| COc1ccc(OC)c(Sc2nc3c(N)ncnc3n2CCc2ccc(O)cc2)c1 [Example 76, 4-{2-[6-amino-8-(2,5-dimethoxy-phenylsulfanyl)-purin-9-yl]-ethyl}-phenol] | 6 |
| COc1ccc(OC)c(Sc2nc3c(N)ncn(CCc4cccc(Br)c4)c-3n2)c1 [Example 78, 3-[2-(3-bromo-phenyl)-ethyl]-8-(2,5-dimethoxy-phenylsulfanyl)-3H-purin-6-ylamine] | 17 |

The remaining lines, values ahead:

| % Inhibition at 5 μM Compound Concentration [%] | Structure (SMILES) |
| --- | --- |
| 10 | COc1ccc(OC)c(Sc2nc3c(N)ncn(CCc4cccc(C(F)(F)F)c4)c-3n2)c1 [Example 80, 8-(2,5-dimethoxy-phenylsulfanyl)-3-[2-(3-trifluoromethyl-phenyl)-ethyl]-3H-purin-6-ylamine] |
| 23 | COc1ccc(OC)c(Sc2nc3c(N)ncnc3n2CCc2ccc(C(=O)O)cc2)c1 [Example 81, 4-{2-[6-Amino-8-(2,5-dimethoxy-phenylsulfanyl)-purin-9-yl]-ethyl}-benzoic acid] |
| 5 | COc1ccc(OC)c(Sc2nc3c(N)ncn(CCc4ccc(C(=O)O)cc4)c-3n2)c1 [Example 82, 4-{2-[6-Amino-8-(2,5-dimethoxy-phenylsulfanyl)-purin-3-yl]-ethyl}-benzoic acid] |
| 0 | COc1ccc(OC)c(Sc2nc3c(N)ncn(Cc4ccc(F)cc4)c-3n2)c1 [Example 83, 8-(2,5-Dimethoxy-phenylsulfanyl)-3-(4-fluoro-benzyl)-3H-purin-6-ylamine] |
| 0 | COc1ccc(OC)c(Sc2nc3c(N)ncnc3n2Cc2ccc([N+](=O)[O-])cc2)c1 [Example 84, 8-(2,5-Dimethoxy-phenylsulfanyl)-9-(4-nitro-benzyl)-9H-purin-6-ylamine] |
| 12 | CCC(Cn1c(Sc2cc(OC)ccc2OC)nc2c(N)ncnc21)c1ccccc1 (centres unmarked) [Example 87, 8-(2,5-Dimethoxy-phenylsulfanyl)-9-(2-phenyl-butyl)-9H-purin-6-ylamine] |
| 6 | COc1ccc(OC)c(Sc2nc3c(N)ncn(CCc4cc(OC)c(OC)c(OC)c4)c-3n2)c1 [Example 90, 8-(2,5-Dimethoxy-phenylsulfanyl)-3-[2-(3,4,5-trimethoxy-phenyl)-ethyl]-3H-purin-6-ylamine] |
| 0 | COc1cc(CCn2cnc(N)c3nc(Sc4cc5c(cc4Br)OCO5)nc2-3)cc(OC)c1OC [Example 92, 8-(6-bromo-benzo[1,3]dioxol-5-ylsulfanyl)-3-[2-(3,4,5-trimethoxy-phenyl)-ethyl]-3H-purin-6-ylamine] |
| 0 | Cc1cc(C)c(CCn2cnc(N)c3nc(Sc4cc5c(cc4Br)OCO5)nc2-3)c(C)c1 [Example 94, 8-(6-bromo-benzo[1,3]dioxol-5-ylsulfanyl)-3-[2-(2,4,6-trimethyl-phenyl)-ethyl]-3H-purin-6-ylamine] |
| 2 | Nc1ncn(CC2(c3ccc(Cl)cc3)CCC2)c2nc(Sc3cc4c(cc3Br)OCO4)nc1-2 [Example 96, 8-(6-bromo-benzo[1,3]dioxol-5-ylsulfanyl)-3-[1-(4-chloro-phenyl)-cyclobutylmethyl]-3H-purin-6-ylamine] |
| 0 | COc1ccc(OC)c(Sc2nc3c(N)ncn(CCc4ccc(Cl)cc4F)c-3n2)c1 [Example 98, 3-[2-(4-chloro-2-fluoro-phenyl)-ethyl]-8-(2,5-dimethoxy-phenylsulfanyl)-3H-purin-6-ylamine] |

same assay, conditions: BODIPY-GM 10 nM, Hsp90 30 nM

| Structure (SMILES) | pIC50 |
| --- | --- |
| COc1ccc(OC)c(Sc2nc3c(N)ncn(CCc4ccc(C(C)=O)cc4)c-3n2)c1 [Example 64, 1-(4-{2-[6-amino-8-(2,5-dimethoxy-phenylsulfanyl)-purin-3-yl]-ethyl}-phenyl)-ethanone] | < 5.30 |
| COc1ccc(OC)c(Sc2nc3c(N)ncnc3n2CCn2cccc2)c1 [Example 65, 8-(2,5-Dimethoxy-phenylsulfanyl)-9-(2-pyrrol-1-yl-ethyl)-9H-purin-6-ylamine] | 6.30 |
| COc1ccc(OC)c(Sc2nc3c(N)ncnc3n2CCc2cccc3ccccc23)c1 [Example 67, 8-(2,5-Dimethoxy-phenylsulfanyl)-9-(2-naphthalen-1-yl-ethyl)-9H-purin-6-ylamine] | 5.82 |
| COc1ccc(OC)c(Sc2nc3c(N)ncnc3n2CCc2ccccc2C)c1 [Example 69, 8-(2,5-Dimethoxy-phenylsulfanyl)-9-(2-o-tolyl-ethyl)-9H-purin-6-ylamine] | 6.60 |
| COc1ccc(OC)c(Sc2nc3c(N)ncnc3n2CCc2ccc(Br)cc2)c1 [Example 71, 9-[2-(4-Bromo-phenyl)-ethyl]-8-(2,5-dimethoxy-phenylsulfanyl)-9H-purin-6-ylamine] | < 4.60 |
| COc1ccc(OC)c(Sc2nc3c(N)ncnc3n2CCc2cccc(Cl)c2Cl)c1 [Example 73, 9-[2-(2,3-Dichloro-phenyl)-ethyl]-8-(2,5-dimethoxy-phenylsulfanyl)-9H-purin-6-ylamine] | < 5.52 |
| COc1ccc(OC)c(Sc2nc3c(N)ncnc3n2CCc2ccc(O)cc2)c1 [Example 75, 4-{2-[6-Amino-8-(2,5-dimethoxy-phenylsulfanyl)-purin-9-yl]-ethyl}-phenol] | 5.54 |
| COc1ccc(OC)c(Sc2nc3c(N)ncnc3n2CCc2cccc(Br)c2)c1 [Example 77, 9-[2-(3-Bromo-phenyl)-ethyl]-8-(2,5-dimethoxy-phenylsulfanyl)-9H-purin-6-ylamine] | 5.72 |

Results, then the molecule that gave them:

| pIC50 | Structure (SMILES) |
| --- | --- |
| 6.52 | COc1ccc(OC)c(Sc2nc3c(N)ncnc3n2CCc2cccc(C(F)(F)F)c2)c1 [Example 79, 8-(2,5-Dimethoxy-phenylsulfanyl)-9-[2-(3-trifluoromethyl-phenyl)-ethyl]-9H-purin-6-ylamine] |
| < 5.30 | COc1ccc(OC)c(Sc2nc3c(N)ncnc3n2Cc2ccc([N+](=O)[O-])cc2)c1 [Example 84, 8-(2,5-Dimethoxy-phenylsulfanyl)-9-(4-nitro-benzyl)-9H-purin-6-ylamine] |
| 6.44 | COc1ccc(OC)c(Sc2nc3c(N)ncnc3n2CCc2ccccc2OC)c1 [Example 85, 8-(2,5-Dimethoxy-phenylsulfanyl)-9-[2-(2-methoxy-phenyl)-ethyl]-9H-purin-6-ylamine] |
| < 5.30 | COc1ccc(OC)c(Sc2nc3c(N)ncn(CCc4ccccc4OC)c-3n2)c1 [Example 86, 8-(2,5-dimethoxy-phenylsulfanyl)-3-[2-(2-methoxy-phenyl)-ethyl]-3H-purin-6-ylamine] |
| 5.89 | CCC(Cn1cnc(N)c2nc(Sc3cc(OC)ccc3OC)nc1-2)c1ccccc1 (centres unmarked) [Example 88] |
| < 5.00 | COc1ccc(OC)c(Sc2nc3c(N)ncnc3n2CCc2cc(OC)c(OC)c(OC)c2)c1 [Example 89, 8-(2,5-Dimethoxy-phenylsulfanyl)-9-[2-(3,4,5-trimethoxy-phenyl)-ethyl]-9H-purin-6-ylamine] |
| 6.70 | COc1cc(CCn2c(Sc3cc4c(cc3Br)OCO4)nc3c(N)ncnc32)cc(OC)c1OC [Example 91, 8-(6-Bromo-benzo[1,3]dioxol-5-ylsulfanyl)-9-[2-(3,4,5-trimethoxy-phenyl)-ethyl]-9H-purin-6-ylamine] |
| 6.72 | Cc1cc(C)c(CCn2c(Sc3cc4c(cc3Br)OCO4)nc3c(N)ncnc32)c(C)c1 [Example 93, 8-(6-Bromo-benzo[1,3]dioxol-5-ylsulfanyl)-9-[2-(2,4,6-trimethyl-phenyl)-ethyl]-9H-purin-6-ylamine] |
| < 5.52 | Nc1ncnc2c1nc(Sc1cc3c(cc1Br)OCO3)n2CC1(c2ccc(Cl)cc2)CCC1 [Example 95, 8-(6-Bromo-benzo[1,3]dioxol-5-ylsulfanyl)-9-[1-(4-chloro-phenyl)-cyclobutylmethyl]-9H-purin-6-ylamine] |
| 6.35 | COc1ccc(OC)c(Sc2nc3c(N)ncnc3n2CCc2ccc(Cl)cc2F)c1 [Example 97, 9-[2-(4-Chloro-2-fluoro-phenyl)-ethyl]-8-(2,5-dimethoxy-phenylsulfanyl)-9H-purin-6-ylamine] |

Source: patent US7595401B2, “Therapeutic compounds and their use in cancer” (Myriad Pharmaceuticals, Inc., priority 2006, dated 2009)
